Test results from US9370494B2, “Methods for treating hepatocellular carcinoma” (ABRAXIS BIOSCIENCE, LLC, priority 2010, dated 2016).

Columns and labels:
HCC cells = conditions: US Patent App. No. 2008/0045584; cited from earlier work
SK-HEP1/Luc+ xenograft = SK-HEP1/Luc+ xenograft model; conditions: 35 mmol/kg every two days for five times
Procedure: SK-HEP1 luciferase stable clone was prepared by transfecting SK-HEP1 cells with firefly luciferase expression vector and selected with 500 ug/ml Geneticin (Gibco-BRL) for 4 weeks. Individual colonies were screened for bioluminescence activity using the Xenogen IVIS® imager (Alameda, Calif., USA). Clones with stable luminescence expression were used for in-vivo studies.
Male BALB/c nude mice at 6-8 weeks old with an average body weight of about 20 g were anesthetized by intraperitoneal injection of ketamine hydrochloride (120 mg/kg) (Fort Dodge Animal Health, Fort Dodge, Iowa, USA) plus xylazine (6 mg/kg) (Phoenix Scientific, Inc., St. Joseph, Mo., USA). Anesthetized animals then received 5×10^6 SK-HEP1/Luc+ cells suspended in 200 μl serum free medium by subcutaneous injection below the dorsal flank. Drug treatments started on day 14 after tumor cells inoculation. […] All drugs were given every two days for five times, at a dose of 35 mmol/kg. See Desai N. et al., Clinical Cancer Research, 12:1317-24 (2006). Tumor growth was monitored twice weekly by in-vivo bioluminescent imaging and by external caliper measurements using the formula of [(Length×Width^2)/2] for 24 days. For in-vivo bioluminescent imaging, 150 mg/kg D-luciferin were given by intraperitoneal injection and ten minutes after luciferin injection, mice were anesthetized by isoflurane and tumor cell viability was measured by the Xenogen IVIS® imager.

Hep3B cells = assay: MTT cell viability assay after siRNA transfection (STMN1 knockdown); assay type: cell-based, human
Procedure: Cell viability was measured by MTT Assay. Cells grown in 96-well plates at density of 3000 cells per well were treated with drugs or siRNA transfection as indicated. […] The formazan formed was measured at 570 nm and cell viability is expressed as a percentage of maximum absorbance from 5 replicates in 3 independent experiments. The concentration of drug that inhibited cell survival by 50% (IC50) was determined from cell survival curves.
siRNA sequences included STMN1 siGENOME SMARTpool (si-STMN1) and siCONTROL Non-Targeting siRNA (si-mock). All siRNAs were chemically synthesized as double stranded RNA (Dharmacon) and introduced into cell lines by Lipofectamine 2000 (Invitrogen, Carlsbad, Calif., USA) according to manufacturer's instructions. Briefly, cells were incubated with 100 nM siRNA (si-STMN1 or si-mock). Six hours after transfection, medium was replaced by fresh growing medium. The expression of STMN1 was monitored by Western blot, which indicated a repressed expression for at least 3 days.

[1] = system: Hep3B, SK-HEP1 and HKCl-9 HCC cell lines; assay: MTT cell viability assay in HCC cell lines; assay type: cell-based; conditions: Homo sapiens; 48 h; range over the 3 cell lines Hep3B, SK-HEP1, HKCl-9
Procedure: Human liver cancer cell lines Hep3B and SK-HEP1 acquired from ATCC were cultured in Dulbecco's modified Eagle medium with Glutamax-1 (Gibco-BRL, Grand Island, N.Y., USA) supplemented with 10% fetal bovine serum. HKCl-9 (as described in Chan K.Y. Y. et al., Modern Pathology 19:1546-54 (2006)) was cultured in AIMV medium (Gibco-BRL) supplemented with 1% L-Glutamine and 10% fetal bovine serum. All cells were cultured under a humidified atmosphere of 5% CO2 at 37° C.

HCC patients = conditions: British Journal of Cancer 1998; cited from earlier work
[2] = system: hepatitis B-related HCC patients; conditions: advanced stage patients; placebo 4.2 months; cited from earlier work

CC(=O)O[C@@]12CO[C@@H]1C[C@H](O)[C@@]1(C)C(=O)[C@H](O)C3=C(C)[C@@H](OC(=O)[C@H](O)[C@@H](NC(=O)OC(C)(C)C)c4ccccc4)C[C@@](O)([C@@H](OC(=O)c4ccccc4)[C@H]21)C3(C)C [Docetaxel]
Activity against HCC cells relative to paclitaxel (HCC cells): more active against HCC cells than paclitaxel
Toxicity (weight loss, deaths) (SK-HEP1/Luc+ xenograft): particularly severe

COc1cccc2c1C(=O)c1c(O)c3c(c(O)c1C2=O)C[C@@](O)(C(=O)CO)C[C@@H]3O[C@H]1C[C@H](N)[C@H](O)[C@H](C)O1 [Doxorubicin]
Toxicity (weight loss, deaths) (SK-HEP1/Luc+ xenograft): particularly severe
Fold more sensitive after STMN1 knockdown (si-STMN1 vs si-mock) (Hep3B cells): no effect
IC50 [1]: 106 to 456 nM

CC(=O)O[C@H]1C(=O)[C@@]2(C)[C@H]([C@H](OC(=O)c3ccccc3)[C@]3(O)C[C@H](OC(=O)[C@H](O)[C@@H](NC(=O)c4ccccc4)c4ccccc4)C(C)=C1C3(C)C)[C@]1(OC(C)=O)CO[C@@H]1C[C@@H]2O [Paclitaxel]
Toxicity (weight loss, deaths) (SK-HEP1/Luc+ xenograft): particularly severe
Anti-cancer effect in HCC patients (HCC patients): no significant anti-cancer effect

CNC(=O)c1cc(Oc2ccc(NC(=O)Nc3ccc(Cl)c(C(F)(F)F)c3)cc2)ccn1 [Sorafenib]
Median overall survival [2]: 6.5 months
